Assay results taken from US20070021434A1, “NON-NUCLEOSIDE ANTI-HEPACIVIRUS AGENTS AND USES THEREOF” (Migenix Inc., priority 2005, published 2007).

target: HCV RdRp (NS5B) (UniProt P26663); assay type: biochemical, hepatitis C virus
Sequence (P26663 whole entry, looked up): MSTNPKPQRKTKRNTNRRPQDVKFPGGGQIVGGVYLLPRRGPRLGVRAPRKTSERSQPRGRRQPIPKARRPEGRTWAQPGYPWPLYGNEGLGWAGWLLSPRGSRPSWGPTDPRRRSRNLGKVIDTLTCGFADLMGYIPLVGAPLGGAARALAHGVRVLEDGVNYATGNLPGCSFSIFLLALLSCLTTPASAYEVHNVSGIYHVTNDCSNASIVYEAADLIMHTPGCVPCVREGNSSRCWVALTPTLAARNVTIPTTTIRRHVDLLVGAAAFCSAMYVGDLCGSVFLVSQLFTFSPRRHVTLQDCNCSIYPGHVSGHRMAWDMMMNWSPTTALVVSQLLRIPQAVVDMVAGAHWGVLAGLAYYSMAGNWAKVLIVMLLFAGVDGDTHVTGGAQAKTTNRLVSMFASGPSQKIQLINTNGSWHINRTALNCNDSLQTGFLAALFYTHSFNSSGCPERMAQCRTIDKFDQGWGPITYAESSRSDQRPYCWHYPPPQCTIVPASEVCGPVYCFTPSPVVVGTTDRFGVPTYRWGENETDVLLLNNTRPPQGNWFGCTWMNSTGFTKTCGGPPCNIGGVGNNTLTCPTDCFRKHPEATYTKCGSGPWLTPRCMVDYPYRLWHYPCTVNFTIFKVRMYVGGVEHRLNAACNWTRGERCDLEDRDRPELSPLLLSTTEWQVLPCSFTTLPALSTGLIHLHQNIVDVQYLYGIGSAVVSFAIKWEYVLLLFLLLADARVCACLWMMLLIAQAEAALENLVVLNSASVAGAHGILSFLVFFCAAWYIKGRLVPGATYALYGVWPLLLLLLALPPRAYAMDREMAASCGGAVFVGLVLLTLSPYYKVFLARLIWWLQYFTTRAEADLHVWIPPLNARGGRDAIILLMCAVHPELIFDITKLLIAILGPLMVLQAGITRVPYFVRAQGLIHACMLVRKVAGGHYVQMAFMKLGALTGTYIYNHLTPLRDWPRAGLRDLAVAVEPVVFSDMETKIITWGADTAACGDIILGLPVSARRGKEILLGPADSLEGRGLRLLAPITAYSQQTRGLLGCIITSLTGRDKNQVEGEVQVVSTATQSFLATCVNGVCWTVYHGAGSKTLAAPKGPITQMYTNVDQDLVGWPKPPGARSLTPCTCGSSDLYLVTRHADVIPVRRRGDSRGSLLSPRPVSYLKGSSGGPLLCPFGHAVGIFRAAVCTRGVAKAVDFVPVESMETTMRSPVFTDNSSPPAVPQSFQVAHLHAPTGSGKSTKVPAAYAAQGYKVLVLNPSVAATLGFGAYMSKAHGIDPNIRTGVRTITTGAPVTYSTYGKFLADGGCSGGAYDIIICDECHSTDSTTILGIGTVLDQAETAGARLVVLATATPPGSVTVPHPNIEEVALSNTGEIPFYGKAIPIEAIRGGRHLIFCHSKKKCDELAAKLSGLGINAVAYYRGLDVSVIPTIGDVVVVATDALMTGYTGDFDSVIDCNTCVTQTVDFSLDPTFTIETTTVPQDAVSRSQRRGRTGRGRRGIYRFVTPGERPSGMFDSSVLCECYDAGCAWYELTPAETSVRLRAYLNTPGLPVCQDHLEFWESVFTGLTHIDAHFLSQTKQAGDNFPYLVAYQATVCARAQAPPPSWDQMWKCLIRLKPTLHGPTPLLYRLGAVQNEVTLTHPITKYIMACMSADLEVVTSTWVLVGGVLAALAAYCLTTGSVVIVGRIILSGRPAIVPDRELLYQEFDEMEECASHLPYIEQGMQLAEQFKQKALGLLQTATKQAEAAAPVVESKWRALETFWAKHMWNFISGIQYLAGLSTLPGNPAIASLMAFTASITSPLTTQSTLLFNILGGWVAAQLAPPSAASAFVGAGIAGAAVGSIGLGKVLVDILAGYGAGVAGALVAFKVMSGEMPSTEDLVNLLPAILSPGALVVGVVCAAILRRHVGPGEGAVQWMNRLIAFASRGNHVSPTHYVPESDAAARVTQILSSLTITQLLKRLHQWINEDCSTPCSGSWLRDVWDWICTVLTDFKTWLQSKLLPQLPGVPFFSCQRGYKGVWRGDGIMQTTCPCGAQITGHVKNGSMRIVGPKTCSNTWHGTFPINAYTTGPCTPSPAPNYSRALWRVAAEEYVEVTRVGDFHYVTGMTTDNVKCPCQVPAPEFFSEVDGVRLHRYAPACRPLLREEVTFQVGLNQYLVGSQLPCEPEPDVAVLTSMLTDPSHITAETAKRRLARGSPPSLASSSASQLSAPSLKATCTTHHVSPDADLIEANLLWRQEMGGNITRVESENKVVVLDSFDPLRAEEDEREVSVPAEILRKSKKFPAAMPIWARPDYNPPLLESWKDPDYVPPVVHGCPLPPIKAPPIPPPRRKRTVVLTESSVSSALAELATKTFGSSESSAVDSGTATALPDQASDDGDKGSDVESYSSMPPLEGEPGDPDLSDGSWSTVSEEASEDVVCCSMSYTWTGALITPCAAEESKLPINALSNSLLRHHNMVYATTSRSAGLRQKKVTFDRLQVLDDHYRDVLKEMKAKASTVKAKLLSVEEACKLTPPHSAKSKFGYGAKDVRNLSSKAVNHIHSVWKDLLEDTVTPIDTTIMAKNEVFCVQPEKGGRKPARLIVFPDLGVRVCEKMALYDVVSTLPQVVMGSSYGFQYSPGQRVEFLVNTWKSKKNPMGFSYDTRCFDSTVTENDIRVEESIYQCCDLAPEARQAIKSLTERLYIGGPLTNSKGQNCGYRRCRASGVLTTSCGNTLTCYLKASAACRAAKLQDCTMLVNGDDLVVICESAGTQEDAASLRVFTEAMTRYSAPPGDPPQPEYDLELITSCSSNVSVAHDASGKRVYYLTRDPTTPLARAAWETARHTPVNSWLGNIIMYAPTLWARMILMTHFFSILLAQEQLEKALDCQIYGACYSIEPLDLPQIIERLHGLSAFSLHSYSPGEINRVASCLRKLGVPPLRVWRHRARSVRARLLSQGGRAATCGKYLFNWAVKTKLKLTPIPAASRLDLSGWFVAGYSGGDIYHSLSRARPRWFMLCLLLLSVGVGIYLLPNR

| SMILES | IC50 [µM] |
| --- | --- |
| CC(C)(C)c1ccc(NC(=O)CN(CCCCN)C(=O)Nc2ccc(OCc3ccccc3)cc2)cc1 [Compound 282, 2-[1-(4-AMINO-BUTYL)-3-(4-BENZYLOXY-PHENYL)-UREIDO]-N-(4-TERT-BUTYL-PHENYL)-ACETAMIDE] | > 50 |
| Cc1ccc(NC(=O)C(CCNC(=O)CN)NC(=O)OCC2c3ccccc3-c3ccccc32)cc1 [Compound 221, (S)-[3-(2-AMINO-ACETYLAMINO)-1-P-TOLYLCARBAMOYL-PROPYL]-CARBAMIC ACID 9H-FLUOREN-9-YLMETHYL ESTER] | > 50 |
| CC(C)(C)c1ccc(NC(=O)[C@H](Cc2ccc(CN)cc2)NC(=O)NC(c2ccccc2)c2ccccc2)cc1 [Compound 151, (S)-3-(4-AMINOMETHYL-PHENYL)-2-(3-BENZHYDRYL-UREIDO)-N-(4-TERT-BUTYL-PHENYL)-PROPIONAMIDE] | < 10 |
| NCCCC[C@@H](NC(=O)OCC1c2ccccc2-c2ccccc21)C(=O)Nc1ccc(C2CCCCC2)cc1 [Compound 128, (R)-[5-AMINO-1-(4-CYCLOHEXYL-PHENYLCARBAMOYL)-PENTYL]-CARBAMIC ACID 9H-FLUOREN-9-YLMETHYL ESTER] | < 10 |
| Cc1ccc(NC(=O)[C@H](CCCCN)NC(=O)CNCc2cccc(Cl)c2)cc1 [Compound 348, (S)-6-AMINO-2-[2-(3-CHLORO-BENZYLAMINO)-ACETYLAMINO]-HEXANOIC ACID P-TOLYLAMIDE] | > 50 |
| NCCCC[C@H](NC(=O)Cn1cnc2c(NC(=O)c3ccccc3)ncnc21)C(=O)N(Cc1ccccc1)C1CCCCC1 [Compound 88, (S)-N-(9-{[5-AMINO-1-(BENZYL-CYCLOHEXYL-CARBAMOYL)-PENTYLCARBAMOYL]-METHYL}-9H-PURIN-6-YL)-BENZAMIDE] | > 50 |
| Cc1cc2cc(NC(=O)C(Cc3ccc(CN)cc3)NC(=O)Nc3ccc(-c4ccccc4)cc3)ccc2[nH]1 [Compound 234, (S)-3-(4-AMINOMETHYL-PHENYL)-2-(3-BIPHENYL-4-YL-UREIDO)—NR-(2-METHYL-1H-INDOL-5-YL)-PROPIONAMIDE] | 10 to 50 |
| NCCCC[C@H](NC(=O)Nc1ccc(OCc2ccccc2)cc1)C(=O)NCCO [Compound 260, (S)-6-AMINO-2-[3-(4-BENZYLOXY-PHENYL)-UREIDO]-HEXANOIC ACID (2-HYDROXY-ETHYL)-AMIDE] | > 50 |
| NCCCC[C@H](NC(=O)Nc1ccc(OCc2ccccc2)cc1)C(=O)Nc1ccc2c(c1)CCC2 [Compound 283, (S)-6-AMINO-2-[3-(4-BENZYLOXY-PHENYL)-UREIDO]-HEXANOIC ACID INDAN-5-YLAMIDE] | 10 to 50 |
| Cc1ccc(NC(=O)[C@@H](CCCN)NC(=O)Nc2ccc3c(c2)Cc2ccccc2-3)cc1 [Compound 193, (R)-5-AMINO-2-[3-(9H-FLUOREN-2-YL)-UREIDO]-PENTANOIC ACID P-TOLYLAMIDE] | < 10 |
| NCCCC[C@H](NC(=O)NCc1ccc(Cl)c(Cl)c1)C(=O)Nc1ccc(CN(C(=O)c2ccco2)C2CCCCC2)cc1 [Compound 154, (S)-FURAN-2-CARBOXYLIC ACID (4-{6-AMINO-2-[3-(3,4-DICHLORO-BENZYL)-UREIDO]-HEXANOYLAMINO}-BENZYL)-CYCLOHEXYL-AMIDE] | 10 to 50 |
| Cc1ccc(NC(=O)[C@H](CCCN)NC(=O)Nc2ccc3c(c2)Cc2ccccc2-3)cc1 [Compound 190, (S)-5-AMINO-2-[3-(9H-FLUOREN-2-YL)-UREIDO]-PENTANOIC ACID P-TOLYLAMIDE] | < 10 |
| N[C@@H](CNC(=O)OCC1c2ccccc2-c2ccccc21)C(=O)Nc1ccc(CN(C(=O)c2ccco2)C2CCCCC2)cc1 [Compound 17, (S)-[2-AMINO-2-(4-{[CYCLOHEXYL-(FURAN-2-CARBONYL)-AMINO]-METHYL}-PHENYLCARBAMOYL)-ETHYL]-CARBAMIC ACID 9H-FLUOREN-9-YLMETHYL ESTER] | 10 to 50 |
| Cc1ccc(NC(=O)[C@H](CCCCN)NC(=O)Nc2ccc3c(c2)OCCO3)cc1 [Compound 213, (S)-6-AMINO-2-[3-(2,3-DIHYDRO-BENZO[1,4]DIOXIN-6-YL)-UREIDO]-HEXANOIC ACID P-TOLYLAMIDE] | > 50 |
| CC(=O)NCC(=O)N1CCN(C(=O)OCC2c3ccccc3-c3ccccc32)C(CC(=O)Nc2ccc(C)cc2)C1 (centres unmarked) [Compound 186, 4-(2-ACETYLAMINO-ACETYL)-2-(P-TOLYLCARBAMOYL-METHYL)-PIPERAZINE-1-CARBOXYLIC ACID 9H-FLUOREN-9-YLMETHYL ESTER] | > 50 |
| Cc1ccc(NC(=O)[C@H](CCCCN)NC(=O)Nc2ccc(OCc3cccc([N+](=O)[O-])c3)cc2)cc1 [Compound 275, (S)-6-AMINO-2-{3-[4-(3-NITRO-BENZYLOXY)-PHENYL]-UREIDO}-HEXANOIC ACID P-TOLYLAMIDE] | 10 to 50 |
| Cc1ccc(NC(=O)[C@H](CCCCN)NC(=O)NS(=O)(=O)c2ccccc2)cc1 [Compound 99, (S)-6-AMINO-2-[PHENYLSULFONAMIDE-UREIDO]-HEXANOIC ACID P-TOLYLAMIDE] | > 50 |
| Cc1ccc(NC(=O)C(CCCCN)NC(=O)CNCc2ccc(C(F)(F)F)cc2)cc1 [Compound 352, (S)-6-AMINO-2-[2-(4-TRIFLUOROMETHYL-BENZYLAMINO)-ACETYLAMINO]-HEXANOIC ACID P-TOLYLAMIDE] | > 50 |
| Cc1ccc(NC(=O)C(CCCCN)NC(=O)CNc2ccc(C(F)(F)F)cc2)cc1 [Compound 365, (S)-6-AMINO-2-[2-(4-TRIFLUOROMETHYL-PHENYLAMINO)-ACETYLAMINO]-HEXANOIC ACID P-TOLYLAMIDE] | > 50 |

| SMILES | IC50 [µM] |
| --- | --- |
| Cc1ccc(NC(=O)NC(CCCCN)C(=O)Nc2ccc(C)cc2)cc1 [Compound 135, (S)-6-AMINO-2-(3-P-TOLYL-UREIDO)-HEXANOIC ACID P-TOLYLAMIDE] | > 50 |
| Cc1ccc(NC(=O)C(CCCN)NC(=O)Nc2ccc(-c3ccccc3)cc2)cc1 [Compound 191, (R)-5-AMINO-2-(3-BIPHENYL-4-YL-UREIDO)-PENTANOIC ACID P-TOLYLAMIDE] | > 50 |
| NCCCC[C@H](NC(=O)Nc1cccc2ccccc12)C(=O)Nc1ccc(CN(C(=O)c2ccco2)C2CCCCC2)cc1 [Compound 31, (S)-FURAN-2-CARBOXYLIC ACID {4-[6-AMINO-2-(3-NAPHTHALEN-1-YL-UREIDO)-HEXANOYLAMINO]-BENZYL}-CYCLOHEXYL-AMIDE] | 10 to 50 |
| O=C(Nc1ccc(C2CCCCC2)cc1)C1CN(C(=O)OCC2c3ccccc3-c3ccccc32)CCN1 (centres unmarked) [Compound 157, 3-(4-CYCLOHEXYL-PHENYLCARBAMOYL)-PIPERAZINE-1-CARBOXYLIC ACID 9H-FLUOREN-9-YLMETHYL ESTER] | > 50 |
| CC(C)(C)c1ccc(NC(=O)[C@H](Cc2ccc(CN)cc2)NC(=O)NCc2ccc(Cl)c(Cl)c2)cc1 [Compound 149, (S)-3-(4-AMINOMETHYL-PHENYL)-N-(4-TERT-BUTYL-PHENYL)-2-[3-(3,4-DICHLORO-BENZYL)-UREIDO]-PROPIONAMIDE] | < 10 |
| COc1ccc2cc(C(=O)NC(CCCCN)C(=O)Nc3ccc(C)cc3)ccc2c1 [Compound 66, (S)-6-METHOXY-NAPHTHALENE-2-CARBOXYLIC ACID (5-AMINO-1-P-TOLYLCARBAMOYL-PENTYL)-AMIDE] | > 50 |
| Cc1ccc(NC(=O)[C@@H](CCCN)NC(=O)Nc2ccc(OCc3ccccc3)cc2)cc1 [Compound 192, (R)-5-AMINO-2-[3-(4-BENZYLOXY-PHENYL)-UREIDO]-PENTANOIC ACID P-TOLYLAMIDE] | > 50 |
| Cc1ccc(NC(=O)[C@H](CCCCN)NC(=O)Nc2cccc(Oc3ccccc3)c2)cc1 [Compound 98, (S)-6-AMINO-2-[3-(3-PHENOXY-PHENYL)-UREIDO]-HEXANOIC ACID P-TOLYLAMIDE] | > 50 |
| Cc1ccc(NC(=O)[C@H](CCCN)NC(=O)Nc2ccc(OCc3ccccc3)cc2)cc1 [Compound 189, (S)-5-AMINO-2-[3-(4-BENZYLOXY-PHENYL)-UREIDO]-PENTANOIC ACID P-TOLYLAMIDE] | > 50 |
| Cc1ccc(NC(=O)C(Cc2ccc(N)cc2)NC(=O)OCC2c3ccccc3-c3ccccc32)cc1 [Compound 180, (S)-[2-(4-AMINO-PHENYL)-1-P-TOLYLCARBAMOYL-ETHYL]-CARBAMIC ACID 9H-FLUOREN-9-YLMETHYL ESTER] | > 50 |
| NCCC[C@@H](NC(=O)OCC1c2ccccc2-c2ccccc21)C(=O)Nc1ccc(CN(C(=O)c2ccco2)C2CCCCC2)cc1 [Compound 16, (R)-[4-AMINO-1-(4-{[CYCLOHEXYL-(FURAN-2-CARBONYL)-AMINO]-METHYL}-PHENYLCARBAMOYL)-BUTYL]-CARBAMIC ACID 9H-FLUOREN-9-YLMETHYL ESTER] | < 10 |
| NCCCC[C@H](NC(=O)Nc1ccc(OCc2ccccc2)cc1)C(=O)N1CCCCC1 [Compound 290, (S)-1-[5-AMINO-1-(PIPERIDINE-1-CARBONYL)-PENTYL]-3-(4-BENZYLOXY-PHENYL)-UREA] | > 50 |
| Cc1ccc(NC(=O)C(CCCCN)NC(=O)NCc2ccccc2)cc1 [Compound 168, (R)-6-AMINO-2-(3-BENZYL-UREIDO)-HEXANOIC ACID P-TOLYLAMIDE] | > 50 |
| Cc1ccc(NC(=O)[C@H](CCCCN)NC(=O)Nc2ccc(OCc3ccccc3F)cc2)cc1 [Compound 248, (S)-6-AMINO-2-{3-[4-(2-FLUORO-BENZYLOXY)-PHENYL]-UREIDO}-HEXANOIC ACID P-TOLYLAMIDE] | 10 to 50 |
| CCCCOc1ccc(S(=O)(=O)N[C@@H](CCCCN)C(=O)Nc2ccc(C)cc2)cc1 [Compound 390, (S)-6-AMINO-2-(4-BUTOXY-BENZENESULFONYLAMINO)-HEXANOIC ACID P-TOLYLAMIDE] | > 50 |
| NCc1ccc(CNC(=O)[C@@H](NC(=O)Nc2ccc(OCc3ccccc3)cc2)c2ccccc2)cc1 [Compound 304, (S)-N-(4-AMINOMETHYL-BENZYL)-2-[3-(4-BENZYLOXY-PHENYL)-UREIDO]-2-PHENYL-ACETAMIDE] | 10 to 50 |
| Cc1ccc(NC(=O)C(CCCCN)NC(=O)Nc2ccc3ccccc3c2)cc1 [Compound 72, (S)-6-AMINO-2-(3-NAPHTHALEN-2-YL-UREIDO)-HEXANOIC ACID P-TOLYLAMIDE] | 10 to 50 |
| Cc1ccc(NC(=O)CC2CN(C(=O)CN)CCN2C(=O)OCC2c3ccccc3-c3ccccc32)cc1 (racemic) [Compound 182, (+/−)-4-(2-AMINO-ACETYL)-2-(P-TOLYLCARBAMOYL-METHYL)-PIPERAZINE-1-CARBOXYLIC ACID 9H-FLUOREN-9-YLMETHYL ESTER] | > 50 |
| Cc1ccc(NC(=O)C2(NC(=O)OCC3c4ccccc4-c4ccccc43)CCCNC2)cc1 (centres unmarked) [Compound 109, (3-P-TOLYLCARBAMOYL-PIPERIDIN-3-YL)-CARBAMIC ACID 9H-FLUOREN-9-YLMETHYL ESTER] | > 50 |
